According to patent US5750555A, “Bis-indolyl maleinimide or indolopyrrolo carbazole containing an amino acid as PKC inhibitors” (Goedecke Aktiengesellschaft, priority 1992, dated 1998):
Where two headings read alike, the source gives them in different places. Where a SMILES comes first, the peptide text is derived from it. The star is where a group is joined. X1 = Cn1cc(C2=C(c3cn(CCC(=O)*)c4ccccc34)C(=O)NC2=O)c2ccccc21

Legend:
protein kinase C (PKC) = assay: Enzyme test PKC with peptide substrate [Ser^25] PKC (19-31), phosphorus^32 phosphate incorporation; assay type: biochemical, rat
Description: The enzyme protein kinase C (PKC) is purified from rat brain. Its activity is determined by way of the incorporation of phosphorus ^32 -labelled phosphate into a synthetic peptide which is derived from the PKC "pseudosubstrate" sequence (arnino acids 19 to 31 of the PKC sequence with alanine in position 25 substituted by serine). A reaction batch of 200 μL contains the following components: 50 mM Tris HCl, pH 7.5, 5 mM MgCl2, 1 mM DTT, 4 μM free Ca^2+, 10 μM ATP, 1 μg phosphatidylserine, 0.2 μg 1,2-diolein, as well as 0.3 μg peptide substrate. The batch is preincubated for 4 minutes at 30° C. and the reaction then started by the addition of 5 nm PKC. After incubation for 5 minutes at 30° C., the reaction is stopped with 0.73% H3 PO4, and the sample then filtered over a nitrocellulose filter (0.1 μm pore size). The phosphate incorporation is determined by means of Cerenkov counting in a scintillation counter. […]

[1] = target: Myosin Light Chain Kinase; assay: Inhibition of myosin light chain kinase (selectivity test); assay type: biochemical; settings: Table 2; for IC50: Myosin Light Chain Kinase, read-out: Inhibition of the Protein Kinases IC50: MLC Kinase; for Ratio of IC50 MLC Kinase/IC50 C Kinase: selectivity ratio MLC Kinase over PKC
Description: The selectivity of these compounds with regard to other kinases, such as myosin light chain kinase, was tested on the basis of some examples. These values are set out in the following Table 2.

[2] = Table 1, PKC purified from rat brain, 10 μM ATP, pH 7.5, 30° C., 5 minutes, read-out: Inhibition IC50, Enzyme Test PKC With Peptide Substrate [Ser^25] PKC (19-31)
[3] = Table 2, PKC with peptide substrate [Ser^25] PKC (19-31), read-out: Inhibition of the Protein Kinases IC50: PKC

Row | Molecule | IC50 (protein kinase C (PKC); [2]) | IC50 (protein kinase C (PKC); [3]) | IC50 [1] | Ratio of IC50 MLC Kinase/IC50 C Kinase [1]
1 | Cn1cc(C2=C(c3cn(CCCN)c4ccccc34)C(=O)NC2=O)c2ccccc21 [A, 3[1(3-aminopropyl)-3-indolyl)-4-(1-methyl-3-indolyl)-1H-pyrrole-2,5-dione, reference compound] |  | 130 nM | 1300 nM | 10
2 | Cn1cc(C2=C(c3cn(CCCNC(=O)CCCCNC(=O)[C@@H](N)CO)c4ccccc34)C(=O)NC2=O)c2ccccc21 [Example 3, 2-[(1-Methyl)-1H-indol-3-yl]-3-[1-[3-(5-L-serylaminopentanoyl)-aminopropyl)-1H-indol-3-yl)-maleinimide] | 61 nM |  |  | 
3 | C[C@H](N)C(=O)NCCCn1c2ccccc2c2c3c(c4c5ccccc5n(C)c4c21)C(=O)NC3=O [Example 8, 12-[2-(3-L-Alanyl)-aminopropyl)-6,7,12,13-tetrahydro-13-methyl-5,7-dioxo-5H-indolo[2,3-a]pyrrolo[3,4-c]-carbazole] | 38 nM |  |  | 
4 | C[C@H](N)C(=O)NCC(=O)NCCCn1cc(C2=C(c3cn(C)c4ccccc34)C(=O)NC2=O)c2ccccc21 [Example 4, 2-[(1-Methyl)-1H-indol-3-yl)-3-[1-[3-(L-alanylglycyl)-aminopropyl]-1H-indol-3-yl]] | 36 nM |  |  | 
5 | C[C@H](NC(=O)CCn1cc(C2=C(c3cn(C)c4ccccc34)C(=O)NC2=O)c2ccccc21)C(=O)O [Example 5, 3-[3-[4-(1-Methylindol-3-yl)-1H-pyrrole-2,5-dion-3-yl]-indol-1-yl)-propionyl-L-alanine] | 580 nM |  |  | 
6 | 12-[2-(L-Alanyl-L-arginyl)-aminopropyl]-6,7,12,13-tetrahydro-13-methyl-5,7- dioxo-5H-indolo[2,3-a]pyrrolo-[3,4-c]carbazole [Example 9] | 190 nM |  |  | 
7 | C[C@H](NC(=O)CCn1cc(C2=C(c3cn(C)c4ccccc34)C(=O)NC2=O)c2ccccc21)C(=O)NCC(=O)N[C@@H](CCCCN)C(N)=O [Example 7, 3-[3-[4-(1-Methylindol-3-yl)-1H-pyrrole-2,5-dion-3-yl]-indol-1-yl)-propionyl-L-alanylglycyl-L-lysinamide] | 230 nM |  |  | 
8 | C[C@@H](N)C(=O)NCCCn1cc(C2=C(c3cn(C)c4ccccc34)C(=O)NC2=O)c2ccccc21 [Example 2, 2-[(1-Methyl)-1H-indol-3-yl)-3-[1-(3-D-alanylaminopropyl)-1H-indol-3-yl]-maleinimide] | 28 nM |  |  | 
9 | Cn1cc(C2=C(c3cn(CCCNC(=O)[C@@H](N)CO)c4ccccc34)C(=O)NC2=O)c2ccccc21 [Example 1, 2-[(1-Methyl)-1H-indol-3-yl]-3-(1-(3-L-serylaminopropyl)-1H-indol-3-yl)-maleinimide] | 14 nM | 14 nM | 4600 nM | 328
10 | C[C@H](N)C(=O)NCCCCn1c2ccccc2c2c3c(c4c5ccccc5n(C)c4c21)C(=O)NC3=O [Example 10, 12-[2-(4-L-Alanyl)-aminobutyl]-6,7,12,13-tetrahydro-13-methyl-5,7-dioxo-5H-indolo[2,3-a]pyrrolo[3,4-c]-carbazole] | 9.6 nM |  |  | 

Continued, values first:

Row | IC50 (protein kinase C (PKC); [2]) | IC50 (protein kinase C (PKC); [3]) | IC50 [1] | Ratio of IC50 MLC Kinase/IC50 C Kinase [1] | Molecule
11 | 200 nM |  |  |  | Cn1cc(C2=C(c3cn(CCC(=O)NCC(=O)NCC(=O)N[C@@H](CO)C(N)=O)c4ccccc34)C(=O)NC2=O)c2ccccc21 [Example 7c, 3-[3-[4-(1-methylindol-3-yl)-1H-pyrrole-3,5-dion-3-yl]-indol-1-yl]-propionylglycylglycyl-L-serylamide]
12 | 53 nM |  |  |  | C[C@H](N)C(=O)NCCCCCn1c2ccccc2c2c3c(c4c5ccccc5n(C)c4c21)C(=O)NC3=O [Example 10a, 12-[2-(5-L-alanyl)-aminopentyl]-6,7,12,13-tetrahydro-13-methyl-5,7-dioxo-5H-indolo[2,3-a]pyrrolo-[3,4-c]carbazole]
13 | 330 nM |  |  |  | C[C@H](N)C(=O)NCCCCCCCCn1cc(C2=C(c3cn(C)c4ccccc34)C(=O)NC2=O)c2ccccc21 [Example 2f, 2-[(1-Methyl)-1H-indol-3-yl]-3-[1-(9-L-alanylaminooctyl)-1H-indol-3-yl)-maleinimide]
14 | > 1000 nM |  |  |  | C[C@H](NC(=O)CNC(=O)[C@H](CO)NC(=O)CCn1cc(C2=C(c3cn(C)c4ccccc34)C(=O)NC2=O)c2ccccc21)C(N)=O [Example 7d, 3-[3-[4-(1-methylindol-3-yl)-1H-pyrrole-2,5-dion-3-yl)-indol-1-yl)-propionyl-L-serylglycyl-L-alaninamide]
15 | > 100 nM |  |  |  | C[C@H](NC(=O)[C@H](Cc1ccccc1)NC(=O)[C@H](CCCNC(=N)N)NC(=O)[C@H](CC(N)=O)NC(=O)[C@H](CCCCN)NC(=O)CCn1cc(C2=C(c3cn(C)c4ccccc34)C(=O)NC2=O)c2ccccc21)C(N)=O [Example 7a, 3-[3-[4-(1-methylindol-3-yl)-1H-pyrrole-2,5-dion-3-yl]-indol-1-yl)-propionyl-L-lysyl-L-asparaginyl-L-arginyl-L-phenylalanyl-L-alaninamide] (X1-KNRFA-NH2)
16 | 220 nM |  |  |  | Cn1cc(C2=C(c3cn(CCCCNC(=O)[C@@H](N)CCCNC(=N)N)c4ccccc34)C(=O)NC2=O)c2ccccc21 [Example 2b, 2-[(1-Methyl)-1H-indol-3-yl]-3-[1-(4-L-arginylaminobutyl)-1H-indol-3-yl]-maleinimide]
17 | 25 nM |  |  |  | C[C@H](N)C(=O)NCCCCn1cc(C2=C(c3cn(C)c4ccccc34)C(=O)NC2=O)c2ccccc21 [Example 2a, 2-[(1-Methyl)-1H-indol-3-yl]-3-[1-(4-L-alanylaminobutylyl)-1H-indol-3-yl)-maleinimide]
18 | > 1000 nM |  |  |  | C[C@H](N)C(=O)NCCCCCCCCCn1cc(C2=C(c3cn(C)c4ccccc34)C(=O)NC2=O)c2ccccc21 [Example 2d, 2-[(l-Methyl)-1H-indol-3-yl]-3-[1-(9-L-alanylaminononyl)-1H-indol-3-yl)-maleinimide]
19 | 18 nM |  |  |  | C[C@H](N)C(=O)NCCC(=O)NCCCn1cc(C2=C(c3cn(C)c4ccccc34)C(=O)NC2=O)c2ccccc21 [Example 4a, 2-[(1-Methyl)-1H-indol-3-yl]-3-[1-[3-(L-alanyl-β-alanyl)-aminopropyl]-1H-indol-3-yl)-maleinimide]
20 | > 100 nM |  |  |  | C[C@H](NC(=O)CNC(=O)CNC(=O)CCn1cc(C2=C(c3cn(C)c4ccccc34)C(=O)NC2=O)c2ccccc21)C(N)=O [Example 7b, 3-[3-[4-(1-methylindol-3-yl)-1H-pyrrole-2,5-dion-3-yl]-indol-1-yl)-propionylglycylglycyl-L-alaninamide]
21 | > 100 nM |  |  |  | C[C@H](N)C(=O)NCCCCCn1cc(C2=C(c3cn(C)c4ccccc34)C(=O)NC2=O)c2ccccc21 [Example 2c, 2-[(1-Methyl)-1H-indol-3-yl]-3-[1-(5-L-alanylaminopentyl)-1H-indol-3-yl]-maleinimide]
22 | 23 nM | 23 nM | 2400 nM | 104 | Cn1cc(C2=C(c3cn(CCCNC(=O)CCN)c4ccccc34)C(=O)NC2=O)c2ccccc21 [Example 1b, 2-[(1-Methyl)-1H-indol-3-yl]-3-[1-(3-β-alanylaminopropyl)-1H-indol-3-yl]-maleinimide]
23 | 6.3 nM | 6.3 nM | 1900 nM | 302 | 2-[(1-Methyl)-1H-indol-3-yl]-3-[1-(3-β-alanylamino-propyl)-1H-indol-3-yl]-maleinimide [Example 1a]
24 | > 1000 nM |  |  |  | Cn1cc(C2=C(c3cn(CCCCCCCCCNC(=O)[C@@H](N)CO)c4ccccc34)C(=O)NC2=O)c2ccccc21 [Example 2e, 2-[(1-Methyl)-1H-indol-3-yl]-3-[1-(9-L-serylaminononyl)-1H-indol-3-yl]-maleinimide]
